Source: patent US10508992B2, “Method and probe for monitoring oxygen status in live mammalian cells” (University College Cork, National University of Ir Cork, priority 2010, dated 2019)

System: MEF cells
Conditions: MEF cells loaded with probe 10 ug/ml, 12 h; different concentrations, added at 30 min, FIG. 6
Protocol: The plate was then measured on a Victor 2 reader as described in Example 4. Initially it was monitored for ˜30 min to reach O2 and temperature equilibrium and obtain basal signals, then quickly withdrawn from the reader, compounds were added to the cells (10 ul of 10× stock solution in each well) and monitoring was resumed. Measured TR-F intensity signals for each sample well were converted into phosphorescence lifetime (t) values and plotted. Control samples and repetitive additions were incorporated as appropriate.

In the case of `N#CC(C#N)=NNc1ccc(OC(F)(F)F)cc1` [FCCP], the “response of probe phosphorescence lifetime to stimulation” value is reported as “Increases in probe lifetime”.
